Source: patent US20230087825A1, “SMARCA DEGRADERS AND USES THEREOF” (Kymera Therapeutics, Inc., priority 2019, published 2023)

Molecular target: T1, SMARCA2 (Homo sapiens, UniProt P51531)
T1 construct: host or cells: NCI-H1299
Experiment: MSD SMARCA2 degradation in NCI-H1299 cell line
Type: cell-based
Details: NCI-H1299 cells; percentage of SMARCA2 degradation after 24 hours
Description: Example 12. MSD SMARCA2 Degration in NCI-H1299 Cell Line
Cell Culture: Cells were cultured in exponential growth phase.
Compound Preparation and Treatment: NCI-H1299 cells were seeded into the 96-well plate at 4.0*10^4 cells per 100 ul per well. Incubate the plate in the incubator overnight. The next day, compounds were diluted to designed stock concentration by TECAN, then perform a 3 fold, 9-point dilution via transferring 15 uL compound into 30 μL DMSO using Apricot. 200 nL diluted compound from compound source plate were transferred into the 96-intermediate plate as designated by using Echo550, followed with 100 ul culture medium to make the 2× compound solution. Cell plate were changed with 80 ul of fresh culture medium and 80 ul of 2× compound solution was added into the well to achieve the final designed concentration. Cell plate was then shaken at 720 rpm for 5 min and incubated for 24 hours in the incubator.
Sample Preperation: Media was aspirated from the cultures and the plate was washed with PBS twice. […]
MSD Procedure: The MSD plate was coated with 40 ul cell lysate and incubated at 4° C. overnight. […] MSD plate was washed 3 times with 150 ul 1×TBST per well and 2× MSD reading buffer was added, 150 ul per well, and diluted from 4× with water. MSD instrument was then read.
Data Analysis: The percentage of relative level of SMARCA2 level was calculated following equation below. […]

T1 sequence (P51531 whole entry): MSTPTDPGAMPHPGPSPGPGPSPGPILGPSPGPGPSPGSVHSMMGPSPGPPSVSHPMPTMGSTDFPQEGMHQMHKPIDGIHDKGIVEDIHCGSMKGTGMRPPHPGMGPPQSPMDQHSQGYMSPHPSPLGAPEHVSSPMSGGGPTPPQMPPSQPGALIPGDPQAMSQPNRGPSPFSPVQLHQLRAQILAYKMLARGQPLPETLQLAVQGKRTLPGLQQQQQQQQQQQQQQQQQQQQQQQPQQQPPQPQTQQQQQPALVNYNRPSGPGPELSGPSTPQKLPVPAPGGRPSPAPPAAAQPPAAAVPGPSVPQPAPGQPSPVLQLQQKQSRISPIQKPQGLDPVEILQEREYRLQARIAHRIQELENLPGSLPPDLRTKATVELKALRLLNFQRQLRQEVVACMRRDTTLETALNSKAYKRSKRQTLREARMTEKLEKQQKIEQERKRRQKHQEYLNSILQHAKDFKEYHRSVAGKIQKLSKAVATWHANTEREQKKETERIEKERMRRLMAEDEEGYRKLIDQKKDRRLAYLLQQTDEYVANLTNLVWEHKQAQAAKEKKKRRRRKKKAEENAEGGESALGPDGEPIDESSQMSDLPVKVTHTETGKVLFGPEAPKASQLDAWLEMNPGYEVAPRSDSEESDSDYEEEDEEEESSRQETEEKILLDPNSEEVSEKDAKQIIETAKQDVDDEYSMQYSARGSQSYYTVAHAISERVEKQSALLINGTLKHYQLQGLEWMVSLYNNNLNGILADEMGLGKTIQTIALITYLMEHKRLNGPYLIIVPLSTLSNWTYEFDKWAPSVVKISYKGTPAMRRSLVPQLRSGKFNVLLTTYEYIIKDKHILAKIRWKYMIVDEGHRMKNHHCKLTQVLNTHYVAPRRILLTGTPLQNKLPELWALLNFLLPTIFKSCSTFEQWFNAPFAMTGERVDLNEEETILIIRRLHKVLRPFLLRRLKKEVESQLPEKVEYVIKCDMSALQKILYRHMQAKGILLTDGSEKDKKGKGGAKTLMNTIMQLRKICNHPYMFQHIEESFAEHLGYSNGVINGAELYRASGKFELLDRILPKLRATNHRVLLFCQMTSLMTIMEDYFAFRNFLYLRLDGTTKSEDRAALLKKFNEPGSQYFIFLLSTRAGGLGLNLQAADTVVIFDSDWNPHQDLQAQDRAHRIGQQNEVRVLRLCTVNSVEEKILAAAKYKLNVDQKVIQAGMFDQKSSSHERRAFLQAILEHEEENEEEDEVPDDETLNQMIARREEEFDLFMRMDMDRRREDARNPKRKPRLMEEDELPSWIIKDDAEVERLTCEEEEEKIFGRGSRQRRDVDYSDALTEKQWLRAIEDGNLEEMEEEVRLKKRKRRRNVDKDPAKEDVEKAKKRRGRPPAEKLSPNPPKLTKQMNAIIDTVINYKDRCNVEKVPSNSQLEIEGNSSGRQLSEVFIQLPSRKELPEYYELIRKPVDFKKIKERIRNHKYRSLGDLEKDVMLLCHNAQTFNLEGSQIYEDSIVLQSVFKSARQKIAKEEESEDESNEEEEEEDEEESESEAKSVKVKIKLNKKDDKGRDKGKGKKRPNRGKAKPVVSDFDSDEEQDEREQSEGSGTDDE

Dmax [%]	SMILES
70 to 90	Nc1nnc(-c2ccccc2O)cc1-c1ccc(CN2CCN(CCCCCc3cccc4c3c3ccccc3n4C3CCC(=O)NC3=O)CC2)cc1 (centres unmarked) [I-7]
50 to 70	Nc1nnc(-c2ccccc2O)cc1-c1ccc(CN2CCN(CCCCOCCCc3ccc4c(c3)c3ccccc3n4C3CCC(=O)NC3=O)CC2)cc1 (centres unmarked) [I-10]
